{
  "source": "patent US20100256395A1",
  "about": "“EFFICIENT METHOD FOR PRODUCING MUGINEIC ACIDS” (SUNTORY HOLDINGS LIMITED, priority 2006, published 2010)",
  "system": "mugineic acid-Fe complex transporter HvYS1",
  "assay": "Iron uptake activity: electrophysiological measurement of intracellular uptake of mugineic acid-Fe complex in oocytes expressing the transporter",
  "type": "cell-based, barley",
  "settings": "substrate-Fe complex final concentration 50 μM; African clawed frog oocytes expressing HvYS1; natural mugineic acid set to 100%; FIG. 1",
  "description": "Concerning the S isomer (natural form) and R isomer of 2′-OH obtained in Example 12, 2′-deoxy isomer obtained in Example 9, and mugineic acid purified from barley by the method described in “Takagi, S. et al., Journal of Plant Nutrition, 1984, 7th volume, p 469-477”, it was verified that the intracellular uptake of iron complex thereof actually takes place via the mugineic acid-Fe complex transporter. According to the method described in “Murata, Y. et al., Plant Journal (Plant J), 2006, 46th volume, p. 563-572.”, the gene HvYS1 gene which codes the mugineic acid-Fe complex transporter of barley (Plant J. 2006, vol. 46, 563-572) was introduced into the oocytes of the African clawed frog. […] The intracellular uptake of mugineic acid-Fe complex was measured using Oocyte clamp OC-725C (Warner Instrument) by the detection of electrochemical signal. More specifically, the oocyte which expressed the mugineic acid-Fe complex transporter HvYS1 was set to the chamber filled with ND-96 solution, 10 μl of a 5 mM substrate-Fe complex solution (final concentration 50 μM) was sprinkled on the oocyte and the electrical physiological activity was measured. The oocyte was plugged with 2 microelectrodes filled with 3M KCl, and with the mode in which the electric potential of the experimental tank was fixed at 0 V, the current value changing at a fixed electrical potential, […], was measured. […]",
  "data": [
    {"smiles": "O=C(O)[C@@H](NCC[C@H](O)C(=O)O)[C@@H](O)CN1CC[C@H]1C(=O)O", "note": "[natural mugineic acid, mugineic acid]", "values": [
      {"measurement": "size of the current value (electrical physiological activity), relative value to natural mugineic acid", "result": 100, "unit": "%"}
    ]}
  ]
}
